Measurements published in US5976813A, “Continuous format high throughput screening” (priority 1997, dated 1999).

Key:
[1] = system: VanA; settings: statement on known inhibitor used as positive control; cited from earlier work
[2] = system: IL-8a receptor; test: Gel/filter CF-HTS control: ^125 I-IL-8 binding to HEK cells expressing the IL-8a receptor; settings: ^125 I-IL-8 in agarose gel diffusing through cell matrix; FIG. 12
Procedure: HEK cells (ATCC, Bethesda, M.D.) expressing the IL-8a receptor were plated on a 75 mm diameter transwell membrane filter (Corning Costar Corp, Cambridge, Mass.) at a density of about 20 million cells per plate. They were allowed to attach to the membrane filter overnight in buffer (RPMI from Life Technologies, Grand Island, N.Y.) containing 10 mM Hepes (Sigma, St Louis, Mo.) at pH 7.2 and 37° C. After the cells were attached to the filter, the media was removed, and the cells were washed with fresh buffer to remove any unattached cells. The filters were inverted cell-side down and placed at an angle to allow excess media to drain, and then dried for 20 minutes. This was timed so that the cell matrix could be immediately used in the assay described below.
The ligand matrix was prepared by soaking ^125 I labeled IL-8 (Amersham, Inc., Arlington Heights, Ill.) into an agarose gel made by mixing 0.1 g agarose with 10 ml buffer, heating until molten, and then casting in a 8×7×0.075 cm gel apparatus. The gels were soaked overnight at RT while slowly mixing on a rotating platform (New Brunswick Scientific Co., Inc, Edison, N.J.). After soaking, the gels were dried for 20 minutes at RT just prior to use. This was timed so that the gel could be immediately used in the assay. […]

[3] = biological target: S. Cerevisiae Elongation Factor 3 (Saccharomyces cerevisiae, UniProt P16521); test: Two-step gel assay for phosphate generated by EF-3 ATPase activity stimulated by ribosome binding; assay type: biochemical; settings: inhibitor amounts 5 picomole to 200 picomole; FIG. 7
Sequence of S. Cerevisiae Elongation Factor 3 (P16521 whole entry): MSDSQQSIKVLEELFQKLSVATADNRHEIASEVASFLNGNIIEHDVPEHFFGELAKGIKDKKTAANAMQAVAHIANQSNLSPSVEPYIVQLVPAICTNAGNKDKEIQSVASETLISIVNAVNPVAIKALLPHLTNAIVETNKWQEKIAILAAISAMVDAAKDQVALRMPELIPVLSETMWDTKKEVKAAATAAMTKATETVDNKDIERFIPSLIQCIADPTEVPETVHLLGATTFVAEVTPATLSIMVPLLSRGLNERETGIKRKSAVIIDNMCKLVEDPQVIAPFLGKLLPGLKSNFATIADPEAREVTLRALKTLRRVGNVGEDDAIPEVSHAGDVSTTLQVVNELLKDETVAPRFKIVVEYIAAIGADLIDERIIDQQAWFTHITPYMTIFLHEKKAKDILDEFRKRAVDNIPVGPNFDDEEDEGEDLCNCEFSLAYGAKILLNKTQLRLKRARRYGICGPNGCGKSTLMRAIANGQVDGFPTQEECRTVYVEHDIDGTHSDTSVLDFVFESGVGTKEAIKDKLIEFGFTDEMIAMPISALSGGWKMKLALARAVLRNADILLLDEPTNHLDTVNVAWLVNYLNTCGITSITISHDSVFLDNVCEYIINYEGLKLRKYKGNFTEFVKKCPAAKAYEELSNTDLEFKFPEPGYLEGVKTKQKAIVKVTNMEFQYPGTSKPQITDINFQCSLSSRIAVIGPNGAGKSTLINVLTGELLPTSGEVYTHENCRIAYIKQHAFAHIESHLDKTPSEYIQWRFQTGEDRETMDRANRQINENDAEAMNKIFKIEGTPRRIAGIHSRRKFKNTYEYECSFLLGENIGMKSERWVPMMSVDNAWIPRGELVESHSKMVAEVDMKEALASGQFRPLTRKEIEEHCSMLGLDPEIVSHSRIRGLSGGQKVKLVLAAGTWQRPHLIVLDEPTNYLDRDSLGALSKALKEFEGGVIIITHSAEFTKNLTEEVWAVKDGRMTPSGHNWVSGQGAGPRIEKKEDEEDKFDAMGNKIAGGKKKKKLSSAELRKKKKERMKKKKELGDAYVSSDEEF
Procedure: A two-step gel assay for detecting phosphate generated by S. Cerevisiae Elongation Factor 3 ATPase activity stimulated by Ribosomes binding
When fungal elongation factor 3 (EF-3) interacts with ribosomes, […] is stimulated. The inventors have applied CF-HTS to the assay for this activity.
An enzyme gel containing EF-3 (a highly temperature sensitive enzyme) and yeast ribosomes in EF-3 assay buffer was prepared. A substrate gel containing 1 mM ATP in assay buffer was also prepared. Both gels contained 2% dimethyl sulfoxide in low melting agarose (Gibco BRL), and were prepared at 37° C. and allowed to set for 30 minutes at 4° C. Serial dilutions of Poly-L-lysine, an inhibitor of EF-3 used as a control sample, was spotted onto PVDC film and dried (sample matrix). The assay was then conducted as in Example 1 by pre-incubating the enzyme gel with the inhibitors on the sample matrix. Then the enzyme gel was placed in contact with the substrate gel for 20 minutes. As in Example 1, the enzyme and substrate gels were stained with Malachite green/Ammonium Molybdate color development cocktail. Then the enzyme gel was imaged with a CCD camera. The inhibitor spots appear as clearer zones in a green background. FIG. 7 illustrates color development on the gel where inhibitor amounts varied from 5 picomole to 200 picomole.

N[C@@H]1CONC1=O [D-cycloserine]
inhibition of VanA [1]: inhibits VanA in a dose-dependent manner

^125 I-IL-8: ^125 I labeled IL-8 (Amersham)
binding to HEK cells expressing the IL-8a receptor [2]: dose response

Poly-L-lysine
inhibition of EF-3 in gel assay (clearer zones in green background) [3]: dose dependent signal of the inhibitor
